Test [1] addresses Protein cereblon/Fibroblast growth factor receptor 3 (Homo sapiens) (UniProt P22607+Q96SW2). Kind of test: PROTAC activity at FGFR3/CRBN in human MCF7 cells assessed as FGFR3 degradation at 0.1 to 10 uM incubated for 6 hrs by Western blot analysis. Format: cell-based. The note with it: dose 0.1-10 µM. (In general: In western blotting, separated proteins are transferred to a membrane and probed.)

Test [2] addresses Protein cereblon/Fibroblast growth factor receptor 2 (Homo sapiens) (UniProt P21802+Q96SW2). Description: PROTAC activity at FGFR2/CRBN in human MCF7 cells assessed as FGFR2 degradation at 0.1 to 10 uM incubated for 6 hrs by Western blot analysis. Format: cell-based. The note with it: dose 0.1-10 µM.
Test [3] has as its target T1, Protein cereblon/Fibroblast growth factor receptor 1 (Homo sapiens) (UniProt P11362+Q96SW2). Kind of test: PROTAC activity at FGFR1/CRBN in human MCF7 cells assessed as FGFR1 degradation at 0.1 to 10 uM incubated for 6 hrs by Western blot analysis. Format: cell-based. The conditions noted are these: dose 0.1-10 µM.
In test [4] the target is Protein cereblon/Fibroblast growth factor receptor 4 (Homo sapiens) (UniProt P22455+Q96SW2). Kind of test: PROTAC activity at FGFR4/CRBN in human MCF7 cells assessed as FGFR4 degradation at 0.1 to 10 uM incubated for 6 hrs by Western blot analysis. Format: cell-based. The conditions noted are these: dose 0.1-10 µM.
Test [5] has as its target von Hippel-Lindau disease tumor suppressor/Fibroblast growth factor receptor 1 (Homo sapiens) (UniProt P11362+P40337). Kind of test: PROTAC activity at FGFR1/VHL in human MCF7 cells assessed as FGFR1 degradation at 100 nM incubated for 6 hrs by Western blot analysis. Format: cell-based.
In a further test the test system is DMS-114. Description: Antiproliferative activity against human DMS-114 cells assessed as inhibition of cell growth incubated for 120 hrs by MTT assay. Format: functional, cell-based. The note with it: DMS-114, 120 h. (In general: Tetrazolium dyes change colour on reduction, which living cells bring about.)
The next test concerns NCI-H1581. Description: Antiproliferative activity against human NCI-H1581 cells assessed as inhibition of cell growth incubated for 120 hrs by MTT assay. Format: functional, cell-based. The note with it: NCI-H1581, 120 h.
Test [6] deals with T1, Protein cereblon/Fibroblast growth factor receptor 1 (Homo sapiens). Kind of test: PROTAC activity at FGFR1/CRBN in human MCF7 cells assessed as FGFR1 degradation at 100 nM incubated for 6 hrs by Western blot analysis. Format: cell-based.
Test [7] has the same target. Description: PROTAC activity at FGFR1/CRBN in human DMS-114 cells assessed as FGFR1 degradation at 0.1 to 10 uM incubated for 6 hrs by Western blot analysis. Format: cell-based. The note with it: dose 0.1-10 µM.
Test [8] has the same target. Kind of test: PROTAC activity at FGFR1/CRBN in human NCI-H1581 cells assessed as FGFR1 degradation at 0.1 to 10 uM incubated for 6 hrs by Western blot analysis. Format: cell-based. The note with it: dose 0.1-10 µM.

Molecules are shown by their SMILES. Active and inactive are the calls of the source. No cut-off for these calls is given here.

Sequence of Protein cereblon/Fibroblast growth factor receptor 2 (Homo sapiens) (P21802 22-821 limits assumed): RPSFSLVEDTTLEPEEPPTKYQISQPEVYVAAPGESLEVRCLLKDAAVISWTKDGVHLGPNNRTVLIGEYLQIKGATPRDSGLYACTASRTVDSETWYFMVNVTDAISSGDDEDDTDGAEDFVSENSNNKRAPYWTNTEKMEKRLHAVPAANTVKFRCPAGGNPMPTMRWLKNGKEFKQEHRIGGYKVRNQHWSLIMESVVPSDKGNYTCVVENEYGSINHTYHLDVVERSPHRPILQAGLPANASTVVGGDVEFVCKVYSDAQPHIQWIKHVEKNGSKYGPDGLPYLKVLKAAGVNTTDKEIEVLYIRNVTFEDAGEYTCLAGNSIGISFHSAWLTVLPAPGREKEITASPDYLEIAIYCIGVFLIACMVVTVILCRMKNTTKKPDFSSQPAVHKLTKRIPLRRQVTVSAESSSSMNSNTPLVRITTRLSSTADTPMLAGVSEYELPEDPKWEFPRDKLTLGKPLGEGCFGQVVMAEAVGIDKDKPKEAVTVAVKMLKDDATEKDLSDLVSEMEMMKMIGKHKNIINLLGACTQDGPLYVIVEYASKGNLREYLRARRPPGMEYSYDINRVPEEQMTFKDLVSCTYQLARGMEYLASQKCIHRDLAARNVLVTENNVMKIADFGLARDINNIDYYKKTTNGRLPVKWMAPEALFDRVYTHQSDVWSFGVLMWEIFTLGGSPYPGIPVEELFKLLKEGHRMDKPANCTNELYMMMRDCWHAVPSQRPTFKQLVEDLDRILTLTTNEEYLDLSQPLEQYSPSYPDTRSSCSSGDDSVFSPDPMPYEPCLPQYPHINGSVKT
Sequence of Protein cereblon/Fibroblast growth factor receptor 2 (Homo sapiens) (Q96SW2 whole entry partner): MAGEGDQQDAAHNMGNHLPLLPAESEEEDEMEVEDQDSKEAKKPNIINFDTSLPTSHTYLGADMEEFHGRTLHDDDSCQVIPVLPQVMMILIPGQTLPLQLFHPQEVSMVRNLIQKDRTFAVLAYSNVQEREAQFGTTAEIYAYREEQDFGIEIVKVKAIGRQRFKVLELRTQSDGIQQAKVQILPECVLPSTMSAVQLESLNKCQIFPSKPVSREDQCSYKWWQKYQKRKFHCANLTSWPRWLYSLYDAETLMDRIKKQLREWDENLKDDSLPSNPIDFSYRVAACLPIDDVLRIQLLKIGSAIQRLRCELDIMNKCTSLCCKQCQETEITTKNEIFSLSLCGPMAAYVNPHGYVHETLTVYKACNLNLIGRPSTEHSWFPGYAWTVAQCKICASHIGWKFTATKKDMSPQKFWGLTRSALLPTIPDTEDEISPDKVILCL
T1 sequence (P11362 whole entry, looked up): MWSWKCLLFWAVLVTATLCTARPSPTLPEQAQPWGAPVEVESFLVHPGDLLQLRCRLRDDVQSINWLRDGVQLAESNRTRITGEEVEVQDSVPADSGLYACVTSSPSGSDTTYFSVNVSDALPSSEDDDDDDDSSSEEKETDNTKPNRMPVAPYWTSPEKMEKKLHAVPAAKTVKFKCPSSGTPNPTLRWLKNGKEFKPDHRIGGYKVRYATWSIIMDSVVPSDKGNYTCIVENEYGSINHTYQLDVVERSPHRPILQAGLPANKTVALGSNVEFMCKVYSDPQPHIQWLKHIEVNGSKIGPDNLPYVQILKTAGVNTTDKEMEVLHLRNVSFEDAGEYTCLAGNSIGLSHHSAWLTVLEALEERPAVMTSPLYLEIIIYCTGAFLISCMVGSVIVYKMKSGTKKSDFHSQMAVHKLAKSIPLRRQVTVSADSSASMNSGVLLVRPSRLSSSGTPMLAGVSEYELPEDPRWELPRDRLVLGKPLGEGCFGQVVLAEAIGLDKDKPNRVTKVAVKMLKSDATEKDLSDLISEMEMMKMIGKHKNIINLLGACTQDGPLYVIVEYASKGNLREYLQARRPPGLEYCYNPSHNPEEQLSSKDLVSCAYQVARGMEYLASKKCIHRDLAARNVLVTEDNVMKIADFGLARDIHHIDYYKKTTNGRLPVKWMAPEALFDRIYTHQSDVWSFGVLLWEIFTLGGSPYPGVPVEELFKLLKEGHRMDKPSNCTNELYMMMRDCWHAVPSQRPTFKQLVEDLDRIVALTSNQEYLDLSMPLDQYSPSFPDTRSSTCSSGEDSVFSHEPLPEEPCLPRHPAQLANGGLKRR
T1 sequence (Q96SW2 whole entry, looked up): as the sequence (Q96SW2 whole entry partner) above
Sequence of Protein cereblon/Fibroblast growth factor receptor 3 (Homo sapiens) (P22607 whole entry, looked up): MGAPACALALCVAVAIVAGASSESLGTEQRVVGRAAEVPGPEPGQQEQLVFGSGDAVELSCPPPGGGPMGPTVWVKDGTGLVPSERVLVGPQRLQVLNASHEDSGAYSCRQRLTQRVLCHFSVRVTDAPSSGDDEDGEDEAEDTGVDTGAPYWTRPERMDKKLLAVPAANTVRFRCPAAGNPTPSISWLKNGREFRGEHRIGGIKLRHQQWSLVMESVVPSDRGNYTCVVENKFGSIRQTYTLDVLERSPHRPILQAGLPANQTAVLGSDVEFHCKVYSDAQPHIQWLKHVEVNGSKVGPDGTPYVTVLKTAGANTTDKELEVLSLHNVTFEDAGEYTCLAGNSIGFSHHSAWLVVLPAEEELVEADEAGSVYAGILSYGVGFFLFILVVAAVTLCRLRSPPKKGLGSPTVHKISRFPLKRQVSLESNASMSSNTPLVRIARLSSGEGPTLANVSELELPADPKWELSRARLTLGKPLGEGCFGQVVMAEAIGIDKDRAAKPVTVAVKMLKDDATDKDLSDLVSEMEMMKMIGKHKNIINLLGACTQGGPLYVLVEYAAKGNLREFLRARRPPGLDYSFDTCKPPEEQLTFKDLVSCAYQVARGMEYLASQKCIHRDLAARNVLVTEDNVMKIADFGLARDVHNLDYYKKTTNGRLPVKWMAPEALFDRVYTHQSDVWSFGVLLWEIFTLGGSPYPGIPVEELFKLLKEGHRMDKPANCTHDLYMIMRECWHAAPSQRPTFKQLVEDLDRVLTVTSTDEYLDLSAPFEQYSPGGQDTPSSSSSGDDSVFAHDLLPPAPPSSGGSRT
Sequence of Protein cereblon/Fibroblast growth factor receptor 3 (Homo sapiens) (Q96SW2 whole entry, looked up): as the sequence (Q96SW2 whole entry partner) above
Sequence of von Hippel-Lindau disease tumor suppressor/Fibroblast growth factor receptor 1 (Homo sapiens) (P11362 22-822 limits assumed): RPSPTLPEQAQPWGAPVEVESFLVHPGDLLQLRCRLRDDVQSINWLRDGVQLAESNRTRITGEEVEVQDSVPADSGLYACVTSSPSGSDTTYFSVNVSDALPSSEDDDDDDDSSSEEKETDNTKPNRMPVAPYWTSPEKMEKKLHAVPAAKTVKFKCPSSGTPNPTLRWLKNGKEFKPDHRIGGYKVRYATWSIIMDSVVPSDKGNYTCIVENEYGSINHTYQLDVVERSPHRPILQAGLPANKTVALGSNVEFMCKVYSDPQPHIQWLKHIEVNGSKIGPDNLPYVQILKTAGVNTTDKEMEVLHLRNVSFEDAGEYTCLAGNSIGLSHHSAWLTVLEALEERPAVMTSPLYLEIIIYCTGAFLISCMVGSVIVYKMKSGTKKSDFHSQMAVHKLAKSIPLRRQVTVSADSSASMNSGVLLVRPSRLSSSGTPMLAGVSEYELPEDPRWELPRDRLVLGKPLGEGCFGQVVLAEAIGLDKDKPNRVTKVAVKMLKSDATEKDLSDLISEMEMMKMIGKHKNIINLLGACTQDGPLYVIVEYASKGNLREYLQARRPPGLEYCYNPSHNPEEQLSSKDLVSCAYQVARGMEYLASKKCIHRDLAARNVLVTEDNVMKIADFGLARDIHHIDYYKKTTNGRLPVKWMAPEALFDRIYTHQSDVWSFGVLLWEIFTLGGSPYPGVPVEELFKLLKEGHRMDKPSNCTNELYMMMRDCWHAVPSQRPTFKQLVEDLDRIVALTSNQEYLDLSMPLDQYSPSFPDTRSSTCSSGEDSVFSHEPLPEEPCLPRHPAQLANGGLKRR
Sequence of von Hippel-Lindau disease tumor suppressor/Fibroblast growth factor receptor 1 (Homo sapiens) (P40337 whole entry partner): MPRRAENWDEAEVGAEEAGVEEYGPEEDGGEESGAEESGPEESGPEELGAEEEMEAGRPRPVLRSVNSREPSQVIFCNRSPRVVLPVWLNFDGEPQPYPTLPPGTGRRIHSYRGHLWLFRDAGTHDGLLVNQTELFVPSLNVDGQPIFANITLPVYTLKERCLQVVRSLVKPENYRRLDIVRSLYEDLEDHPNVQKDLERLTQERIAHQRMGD
Sequence of Protein cereblon/Fibroblast growth factor receptor 4 (Homo sapiens) (P22455 whole entry, looked up): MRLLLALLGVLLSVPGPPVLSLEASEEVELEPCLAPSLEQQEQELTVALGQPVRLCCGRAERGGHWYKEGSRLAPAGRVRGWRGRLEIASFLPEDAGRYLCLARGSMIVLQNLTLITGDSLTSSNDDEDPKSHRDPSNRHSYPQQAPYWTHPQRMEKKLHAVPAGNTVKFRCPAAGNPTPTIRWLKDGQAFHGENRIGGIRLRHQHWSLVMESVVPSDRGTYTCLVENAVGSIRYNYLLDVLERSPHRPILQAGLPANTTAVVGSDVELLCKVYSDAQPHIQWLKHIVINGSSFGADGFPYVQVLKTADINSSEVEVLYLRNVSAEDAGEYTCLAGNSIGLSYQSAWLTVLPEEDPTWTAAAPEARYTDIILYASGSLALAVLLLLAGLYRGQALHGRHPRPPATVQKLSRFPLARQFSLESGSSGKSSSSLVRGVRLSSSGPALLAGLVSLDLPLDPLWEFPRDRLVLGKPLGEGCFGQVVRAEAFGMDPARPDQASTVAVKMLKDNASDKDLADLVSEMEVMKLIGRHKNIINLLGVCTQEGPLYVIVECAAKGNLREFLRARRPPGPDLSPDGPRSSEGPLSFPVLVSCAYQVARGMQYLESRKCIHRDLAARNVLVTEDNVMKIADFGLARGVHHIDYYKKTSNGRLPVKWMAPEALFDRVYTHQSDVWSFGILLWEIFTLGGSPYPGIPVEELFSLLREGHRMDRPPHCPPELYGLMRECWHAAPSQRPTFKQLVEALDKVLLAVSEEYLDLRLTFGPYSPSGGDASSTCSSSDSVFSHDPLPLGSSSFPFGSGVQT
Sequence of Protein cereblon/Fibroblast growth factor receptor 4 (Homo sapiens) (Q96SW2 whole entry, looked up): as the sequence (Q96SW2 whole entry partner) above

For `COc1cc(CCc2cc(NC(=O)c3ccc(N4C[C@@H](C)N(CC(=O)N/N=C/c5ccc(OCCOCCOCCOCC(=O)NCC#Cc6cccc7c6CN(C6CCC(=O)NC6=O)C7=O)cc5)[C@@H](C)C4)cc3)n[nH]2)cc(OC)c1` (stereo not given in full), the result in test [1], in test [2] and in test [4] was inactive. Moreover, in [3], the outcome was Active.
As to `COc1cc(CCc2cc(NC(=O)c3ccc(N4C[C@@H](C)N(CC(=O)N/N=C/c5ccc(OCCOCCOCCOCC(=O)N[C@H](C(=O)N6C[C@H](O)C[C@H]6C(=O)N[C@@H](C)c6ccc(-c7scnc7C)cc6)C(C)(C)C)cc5)[C@@H](C)C4)cc3)n[nH]2)cc(OC)c1`, the result in test [5] was Active.
Regarding `COc1cc(CCc2cc(NC(=O)c3ccc(N4C[C@@H](C)N(CC(=O)N/N=C/c5ccc(OCCOCCOCCOCCOCCOCC(=O)NCC#Cc6cccc7c6CN(C6CCC(=O)NC6=O)C7=O)cc5)[C@@H](C)C4)cc3)n[nH]2)cc(OC)c1` (stereo not given in full), the outcome in test [1], in [2] and in test [4] was inactive. Further, the result in test [3] was Active.
As a reminder, the IC50 is the concentration needed to halve the response being measured. Consider `COc1cc(CCc2cc(NC(=O)c3ccc(N4C[C@@H](C)N[C@@H](C)C4)cc3)n[nH]2)cc(OC)c1` [FEXAGRATINIB], for which the IC50 in the test on DMS-114 was 14 nM; with NCI-H1581, 4 nM.
Consider `COc1cc(CCc2cc(NC(=O)c3ccc(N4C[C@@H](C)N(CC(=O)N/N=C/c5ccc(OCCOCC(=O)NCC#Cc6cccc7c6CN(C6CCC(=O)NC6=O)C7=O)cc5)[C@@H](C)C4)cc3)n[nH]2)cc(OC)c1` (stereo not given in full), for which the result in test [1], in test [2] and in test [4] was inactive. Further, in [3], the result was Active.
Take `COc1cc(CCc2cc(NC(=O)c3ccc(N4C[C@@H](C)N(CC(=O)N/N=C\c5ccc(OCC(=O)N[C@H](C(=O)N6C[C@H](O)C[C@H]6C(=O)N[C@@H](C)c6ccc(-c7scnc7C)cc6)C(C)(C)C)cc5)[C@@H](C)C4)cc3)n[nH]2)cc(OC)c1`: the result in [5] was Active.
On to `COc1cc(CCc2cc(NC(=O)c3ccc(N4C[C@@H](C)N(CC(=O)NCCc5ccc(OCC(=O)N[C@H](C(=O)N6C[C@H](O)C[C@H]6C(=O)N[C@@H](C)c6ccc(-c7scnc7C)cc6)C(C)(C)C)cc5)[C@@H](C)C4)cc3)n[nH]2)cc(OC)c1`, for which the IC50 with DMS-114 came to 139 nM; with NCI-H1581, 160 nM.
For `COc1cc(CCc2cc(NC(=O)c3ccc(N4C[C@@H](C)N(CC(=O)N/N=C/c5ccc(OCCCCC(=O)NCC#Cc6cccc7c6CN(C6CCC(=O)NC6=O)C7=O)cc5)[C@@H](C)C4)cc3)n[nH]2)cc(OC)c1` (stereo not given in full), the outcome in test [6] was Active.
As to `COc1cc(CCc2cc(NC(=O)c3ccc(N4C[C@@H](C)N(CC(=O)NCCc5ccc(OCCOCCOCC(=O)NC#Cc6cccc7c6CN(C6CCC(=O)NC6=O)C7=O)cc5)[C@@H](C)C4)cc3)n[nH]2)cc(OC)c1` (stereo not given in full), the result in test [7] and in test [8] was inactive. Besides, in [3], the result was Active.
For the compound `COc1cc(CCc2cc(NC(=O)c3ccc(N4C[C@@H](C)N(CC(=O)N/N=C/c5ccc(OCCOCCOCCOCCOCC(=O)N[C@H](C(=O)N6C[C@H](O)C[C@H]6C(=O)N[C@@H](C)c6ccc(-c7scnc7C)cc6)C(C)(C)C)cc5)[C@@H](C)C4)cc3)n[nH]2)cc(OC)c1`, the outcome in test [5] was Active.
Still for that read-out and setting: then `COc1cc(CCc2cc(NC(=O)c3ccc(N4C[C@@H](C)N(CC(=O)N/N=C\c5ccc(OCCCCC(=O)N[C@H](C(=O)N6C[C@H](O)C[C@H]6C(=O)N[C@@H](C)c6ccc(-c7scnc7C)cc6)C(C)(C)C)cc5)[C@@H](C)C4)cc3)n[nH]2)cc(OC)c1`, with “Active”.
In the case of `COc1cc(CCc2cc(NC(=O)c3ccc(N4C[C@@H](C)N(CC(=O)N/N=C/c5ccc(OCCOCCOCC(=O)NCC#Cc6cccc7c6CN(C6CCC(=O)NC6=O)C7=O)cc5)[C@@H](C)C4)cc3)n[nH]2)cc(OC)c1` (stereo not given in full), the result in test [6] was Active.

These data come from ChEMBL document CHEMBL5223126, “Development of selective FGFR1 degraders using a Rapid synthesis of proteolysis targeting Chimera (Rapid-TAC) platform” (Bioorg Med Chem Lett, 2022).
